Data as given in US11634412B2, “3-phosphoglycerate dehydrogenase inhibitors and uses thereof” (Raze Therapeutics, Inc., priority 2016, dated 2023).

molecular target: T1, Full length (FL) 3-Phosphoglycerate Dehydrogenase (PHGDH) (Homo sapiens, UniProt O43175); test: Full length (FL) PHGDH Diaphorase coupled assay (500 uM NAD); type: biochemical; details: full-length PHGDH 5 nM, 30° C. 60 minutes, resorufin fluorescence
T1 construct: Full length (FL) 3-Phosphoglycerate Dehydrogenase (PHGDH) Diaphorase coupled assay (500 uM NAD)
T1 sequence (O43175 1-533): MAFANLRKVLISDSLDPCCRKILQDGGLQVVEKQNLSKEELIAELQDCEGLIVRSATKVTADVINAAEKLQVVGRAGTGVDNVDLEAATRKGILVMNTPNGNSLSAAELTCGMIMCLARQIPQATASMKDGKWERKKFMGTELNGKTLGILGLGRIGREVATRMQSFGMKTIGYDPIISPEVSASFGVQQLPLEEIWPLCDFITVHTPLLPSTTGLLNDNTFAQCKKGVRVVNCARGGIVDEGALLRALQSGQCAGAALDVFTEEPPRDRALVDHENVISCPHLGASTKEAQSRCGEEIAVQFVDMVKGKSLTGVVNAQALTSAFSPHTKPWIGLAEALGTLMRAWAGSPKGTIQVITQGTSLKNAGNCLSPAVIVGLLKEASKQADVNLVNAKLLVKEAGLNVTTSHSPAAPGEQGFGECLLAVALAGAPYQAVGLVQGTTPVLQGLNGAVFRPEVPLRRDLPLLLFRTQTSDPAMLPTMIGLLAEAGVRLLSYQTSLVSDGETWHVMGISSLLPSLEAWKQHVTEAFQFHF
Experimental: Full length (FL) 3-Phosphoglycerate Dehydrogenase (PHGDH) Diaphorase coupled assay (500 uM NAD)
PHGDH activity was determined by detecting the NADH produced during the reaction. Diaphorase was used to catalyze the oxidation of NADH with the concomitant reduction of resazurin to the fluorescent product resorufin. Resorufin fluorescence quantitatively reflected the production of NADH by the PHGDH reaction. To drive the forward reaction, two enzymes in the serine synthesis pathway subsequent to PHGDH, Phosphoserine aminotransferase (PSAT1) and phosphoserine phosphatase (PSPH) were also added to the reaction.
Briefly, serial dilution of compounds were incubated in a volume of 20 μL in 384 well plates with the assay mixture containing 5 nM PHGDH, 500 nM PSAT1, 500 nM PSPH, 500 μM NAD^+, 80 uM 3-phosphoglycerate, 1 mM glutamate, 57 uM Resazurin and 0.2 mg/ml Diaphorase in assay buffer containing 50 mM Trisethanoloamine (TEA) pH8.0, 10 mM MgCl2, 0.01% Tween-20 and 0.05% Bovine Serum Albumin (BSA). The plate was then incubated at 30° C. for 60 minutes and resorufin fluorescence was measured at emission wavelength 598 nm following excitation at 525 nm. The positive control consisted of the complete reaction mixture with 4% DMSO and was set to 0% inhibition.

Row | IC50 [µM] | Structure (SMILES)
1 | 0.001 to 1 | Cn1c(C(=O)NC2(c3ccc(C(C(=O)O)C4CCCC4)cc3)CCOC2)cc2c(Cl)c(Cl)ccc21 (racemic) [I-16 e87]
2 | 0.001 to 1 | Cn1c(C(=O)NC2(c3ccc(C(C(=O)O)C4CC4)cc3)CCOC2)cc2c(Cl)c(Cl)ccc21 (racemic) [I-15 e162, (±)-2-Cyclopropyl-2-(4-(3-(4,5-dichloro-1-methyl-1H-indole-2-carboxamido)tetrahydrofuran-3-yl)phenyl)acetic acid]
3 | 0.001 to 1 | COc1ccc2c(cc(C(=O)NC3(c4ccc(C(C(=O)O)C5CCC5)cc4)COC3)n2C)c1Cl (racemic) [I-13 e111]
4 | 0.001 to 1 | CCC(C(=O)O)c1ccc(C2(NC(=O)c3cc4c(Cl)c(Cl)c(OC)cc4n3C)COC2)cc1 (racemic) [I-14 e113]
5 | 0.001 to 1 | CC(C(=O)O)c1ccc(C2(NC(=O)c3cc4c(Cl)c(Cl)ccc4n3C)COC2)cc1 (racemic) [I-68 e58]
6 | 0.001 to 1 | COc1ccc2c(cc(C(=O)NC3(c4ccc(C(C(=O)O)C5CCNCC5)cc4)COC3)n2C)c1Cl (racemic) [I-159 e121]
7 | 0.001 to 1 | COc1cc2c(cc(C(=O)NC3(c4ccc(C(C(=O)O)C5CC5)cc4)CCOC3)n2C)c(Cl)c1Cl (racemic) [I-163 e163, (±)-2-Cyclopropyl-2-(4-(3-(4,5-dichloro-6-methoxy-1-methyl-1H-indole-2-carboxamido)tetrahydrofuran-3-yl)phenyl)acetic acid]
8 | 0.001 to 1 | C[C@@H](C(=O)O)c1ccc(C2(NC(=O)c3cc4c(Cl)c(Cl)ccc4n3C)COC2)cc1 (single isomer, unassigned) [I-34 or I-35 e161 peak 2]
9 | 0.001 to 1 | COc1cc2c(cc(C(=O)NC3(c4ccc(C(=O)O)cc4)CCOC3)n2C)c(Cl)c1Cl (racemic) [I-115 e33]
10 | 0.001 to 1 | COc1ccc2c(cc(C(=O)NC3(c4ccc(C(C)C(=O)O)cc4)COC3)n2C)c1Cl (racemic) [I-67 e59]
11 | 0.001 to 1 | COc1cc2c(cc(C(=O)NC3(c4ccc(C(CC5CC5)C(=O)O)cc4)COC3)n2C)c(Cl)c1Cl (racemic) [I-4 e123]
12 | 0.001 to 1 | Cn1c(C(=O)NC2(c3ccc(C(C(=O)O)C4CCC4)cc3)COC2)cc2c(Cl)c(Cl)ccc21 (racemic) [I-8 e116]
13 | 0.001 to 1 | COc1cc2c(cc(C(=O)NC3(c4ccc(C(C(=O)O)C5CCC5)cc4)COC3)n2C)c(Cl)c1Cl (racemic) [I-7 e117]
14 | 0.001 to 1 | COc1ccc2c(cc(C(=O)NC3(c4ccc(C(C(=O)O)C5CCCCC5)cc4)COC3)n2C)c1Cl (racemic) [I-156 e119]
15 | 0.001 to 1 | CCCC(C(=O)O)c1ccc(C2(NC(=O)c3cc4c(Cl)c(Cl)c(OC)cc4n3C)CCOC2)cc1 (racemic) [I-17 e85]
16 | 0.001 to 1 | CCCC(C(=O)O)c1ccc(C2(NC(=O)c3cc4c(Cl)c(Cl)c(OC)cc4n3C)COC2)cc1 (racemic) [I-38 e115]

Further lines, the compound ahead of its results:

Row | Structure (SMILES) | IC50 [µM]
17 | COc1cc(Cl)c2cc(C(=O)NC3(c4ccc(C(=O)O)cc4)CCOC3)n(C)c2c1 (racemic) [I-114 e34] | 1 to 5
18 | Cc1cc(C2(NC(=O)c3cc4c(Cl)c(Cl)ccc4n3C)CCOC2)ccc1C(=O)O (racemic) [I-98 e155, (±)-4-[3-[(4,5-Dichloro-1-methyl-indole-2-carbonyl)amino]tetrahydro-furan-3-yl]-2-methyl-benzoic acid] | 0.001 to 1
19 | COc1ccc2c(cc(C(=O)NC3(c4ccc(C(=O)O)cc4C)COC3)n2C)c1Cl [I-60 e65] | 0.001 to 1
20 | COc1cc2c(cc(C(=O)NC3(c4ccc(C(=O)O)cc4F)COC3)n2C)c(Cl)c1C [I-50 e75] | 0.001 to 1
21 | Cn1c(C(=O)NC2(c3ccc(C(=O)O)cc3)CCOC2)cc2c(Cl)c3c(cc21)OCCO3 (racemic) [I-113 e35] | 0.001 to 1
22 | Cn1c(C(=O)NC2(c3ccc(C(=O)O)cc3)CCN(CC(F)(F)F)C2)cc2c(Cl)c(Cl)ccc21 (racemic) [I-125 e19] | 1 to 5
23 | Cn1c(C(=O)NC2(c3ccc(C(=O)O)cc3F)COC2)cc2c(Cl)c(Cl)ccc21 [I-79 e41] | 0.001 to 1
24 | CCC(C(=O)O)c1ccc(C2(NC(=O)c3cc4c(Cl)c(Cl)ccc4n3C)CCOC2)cc1 (racemic) [I-72 e56] | 0.001 to 1
25 | COc1ccc2c(cc(C(=O)NC3(c4ccc(C(CCCO)C(=O)O)cc4)COC3)n2C)c1Cl (stereo not drawn) [I-11 e72] | 0.001 to 1
26 | Cn1c(C(=O)NC2(c3cccc(CC(=O)O)c3)CCOC2)cc2c(Cl)c(Cl)ccc21 (racemic) [I-119 e153, (±)-2-[3-[3-[(4,5-Dichloro-1-methyl-indole-2-carbonyl)amino]tetrahydrofuran-3-yl]phenyl]acetic acid] | 0.001 to 1
27 | Cn1c(C(=O)NC2(c3ccc(C(C)(C)C(=O)O)cc3F)COC2)cc2c(Cl)c(Cl)ccc21 [I-37 e109] | 0.001 to 1
28 | Cn1c(C(=O)NC2(c3ccc(CC(=O)O)cc3F)COC2)cc2c(Cl)c(Cl)ccc21 [I-90 e43] | 0.001 to 1
29 | COc1ccc2c(cc(C(=O)NC3(c4ccc(C(=O)O)cc4)CCOC3)n2C)c1Cl (racemic) [I-122 e26] | 0.001 to 1
30 | COc1ccc2c(cc(C(=O)NC3(c4ccc(CC(=O)O)cc4)CCOC3)n2C)c1Cl (racemic) [I-78 e40] | 0.001 to 1
31 | Cn1c(C(=O)NC2(c3ccc(C(=O)O)cn3)CCOC2)cc2c(Cl)c(Cl)ccc21 (racemic) [I-74 e27] | 0.001 to 1
32 | CC(C(=O)O)c1ccc(C2(NC(=O)c3cc4c(Cl)c(Cl)ccc4n3C)CCOC2)c(F)c1 (racemic) [I-57 e53] | 0.001 to 1
33 | Cn1c(C(=O)NC2(c3ccc(C(=O)O)cc3)CCOC2)cc2c(Cl)c(Cl)c(OCC3CCCO3)cc21 (racemic) [I-94 e98] | 0.001 to 1
34 | Cn1c(C(=O)NC2(c3ccc(C(=O)O)cc3)CCOC2)cc2c(Cl)cccc21 (racemic) [I-117 e30] | 1 to 5
35 | Cn1c(C(=O)NC2(c3ccc(C(C)(C)C(=O)O)cc3)CCOC2)cc2c(Cl)c(Cl)ccc21 (racemic) [I-87 e37] | 0.001 to 1
36 | COc1ccc2c(cc(C(=O)NC3(c4ccc(CC(=O)O)cc4)COC3)n2C)c1Cl [I-103 e39] | 0.001 to 1
37 | Cn1c(C(=O)NC2(c3ccc(Cc4nnn[nH]4)cc3)COC2)cc2c(Cl)c(Cl)ccc21 [I-41 e92] | 0.001 to 1
38 | CN1CC(COc2cc3c(cc(C(=O)NC4(c5ccc(C(=O)O)cc5)CCOC4)n3C)c(Cl)c2Cl)CC1=O (racemic) [I-102 e100] | 0.001 to 1
39 | CCC(=O)NS(=O)(=O)c1ccc(C2(NC(=O)c3cc4c(Cl)c(OC)ccc4n3C)COC2)cc1 [I-161 e164, 4-Chloro-5-methoxy-1-methyl-N-(3-(4-(N-propanoylsulfamoyl)phenyl)-oxetan-3-yl)-1H-indole-2-carboxamide] | 0.001 to 1
40 | CC(c1ccc(C2(NC(=O)c3cc4c(Cl)c(Cl)ccc4n3C)CCOC2)cc1)c1nnn[nH]1 (racemic) [I-52 e91] | 0.001 to 1
41 | CCC(C(=O)O)c1ccc(C2(NC(=O)c3cc4c(Cl)c(Cl)ccc4n3C)COC2)cc1 (racemic) [I-42 e133] | 0.001 to 1
42 | Cn1c(C(=O)NC2(c3ccc(C4(C(=O)O)CCOC4)cc3)COC2)cc2c(Cl)c(Cl)ccc21 (racemic) [I-2 e125] | 0.001 to 1
43 | COc1cc2c(cc(C(=O)NC3(c4ccc(C(=O)O)cc4C)COC3)n2C)c(Cl)c1C [I-45 e74] | 0.001 to 1
44 | COc1ccc2c(cc(C(=O)NC3(c4ccc(C(C)(C)C(=O)O)cc4)COC3)n2C)c1Cl [I-27 e110] | 0.001 to 1
45 | COc1ccc2c(cc(C(=O)NC3(c4ccc(S(=O)(=O)NC(C)=O)cc4)COC3)n2C)c1Cl [I-164 e88] | 0.001 to 1
